This passage reports IC50 results from patent US9549932B2, “2-(morpholin-4-yl)-1,7-naphthyridines” (BAYER PHARMA AKTIENGESELLSCHAFT, priority 2014, dated 2017).

This test addresses full-length human ATR protein (Homo sapiens (Human), UniProt Q13535). Kind of test: Binding assay ATR (TR-FRET tracer displacement). The conditions noted are these: tracer A, TR-FRET; read-out: ATR binding (tracer A) IC50. In a few lines:
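Full-length human GST-ATR co-purified with ATRIP, pre-complexed 30 min at 22 °C with anti-GST-Tb antibody, then pre-bound with compound 10 min. Tracer A or B added (2 µl of 100 nM solution), 30 min at 22 °C.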
In general terms: Time-resolved FRET reads energy transfer from a long-lived donor to a nearby acceptor.

Molecules are shown by their SMILES.

full-length human ATR protein, sequence (Q13535 other isoform, or with tags, fused parts or gaps): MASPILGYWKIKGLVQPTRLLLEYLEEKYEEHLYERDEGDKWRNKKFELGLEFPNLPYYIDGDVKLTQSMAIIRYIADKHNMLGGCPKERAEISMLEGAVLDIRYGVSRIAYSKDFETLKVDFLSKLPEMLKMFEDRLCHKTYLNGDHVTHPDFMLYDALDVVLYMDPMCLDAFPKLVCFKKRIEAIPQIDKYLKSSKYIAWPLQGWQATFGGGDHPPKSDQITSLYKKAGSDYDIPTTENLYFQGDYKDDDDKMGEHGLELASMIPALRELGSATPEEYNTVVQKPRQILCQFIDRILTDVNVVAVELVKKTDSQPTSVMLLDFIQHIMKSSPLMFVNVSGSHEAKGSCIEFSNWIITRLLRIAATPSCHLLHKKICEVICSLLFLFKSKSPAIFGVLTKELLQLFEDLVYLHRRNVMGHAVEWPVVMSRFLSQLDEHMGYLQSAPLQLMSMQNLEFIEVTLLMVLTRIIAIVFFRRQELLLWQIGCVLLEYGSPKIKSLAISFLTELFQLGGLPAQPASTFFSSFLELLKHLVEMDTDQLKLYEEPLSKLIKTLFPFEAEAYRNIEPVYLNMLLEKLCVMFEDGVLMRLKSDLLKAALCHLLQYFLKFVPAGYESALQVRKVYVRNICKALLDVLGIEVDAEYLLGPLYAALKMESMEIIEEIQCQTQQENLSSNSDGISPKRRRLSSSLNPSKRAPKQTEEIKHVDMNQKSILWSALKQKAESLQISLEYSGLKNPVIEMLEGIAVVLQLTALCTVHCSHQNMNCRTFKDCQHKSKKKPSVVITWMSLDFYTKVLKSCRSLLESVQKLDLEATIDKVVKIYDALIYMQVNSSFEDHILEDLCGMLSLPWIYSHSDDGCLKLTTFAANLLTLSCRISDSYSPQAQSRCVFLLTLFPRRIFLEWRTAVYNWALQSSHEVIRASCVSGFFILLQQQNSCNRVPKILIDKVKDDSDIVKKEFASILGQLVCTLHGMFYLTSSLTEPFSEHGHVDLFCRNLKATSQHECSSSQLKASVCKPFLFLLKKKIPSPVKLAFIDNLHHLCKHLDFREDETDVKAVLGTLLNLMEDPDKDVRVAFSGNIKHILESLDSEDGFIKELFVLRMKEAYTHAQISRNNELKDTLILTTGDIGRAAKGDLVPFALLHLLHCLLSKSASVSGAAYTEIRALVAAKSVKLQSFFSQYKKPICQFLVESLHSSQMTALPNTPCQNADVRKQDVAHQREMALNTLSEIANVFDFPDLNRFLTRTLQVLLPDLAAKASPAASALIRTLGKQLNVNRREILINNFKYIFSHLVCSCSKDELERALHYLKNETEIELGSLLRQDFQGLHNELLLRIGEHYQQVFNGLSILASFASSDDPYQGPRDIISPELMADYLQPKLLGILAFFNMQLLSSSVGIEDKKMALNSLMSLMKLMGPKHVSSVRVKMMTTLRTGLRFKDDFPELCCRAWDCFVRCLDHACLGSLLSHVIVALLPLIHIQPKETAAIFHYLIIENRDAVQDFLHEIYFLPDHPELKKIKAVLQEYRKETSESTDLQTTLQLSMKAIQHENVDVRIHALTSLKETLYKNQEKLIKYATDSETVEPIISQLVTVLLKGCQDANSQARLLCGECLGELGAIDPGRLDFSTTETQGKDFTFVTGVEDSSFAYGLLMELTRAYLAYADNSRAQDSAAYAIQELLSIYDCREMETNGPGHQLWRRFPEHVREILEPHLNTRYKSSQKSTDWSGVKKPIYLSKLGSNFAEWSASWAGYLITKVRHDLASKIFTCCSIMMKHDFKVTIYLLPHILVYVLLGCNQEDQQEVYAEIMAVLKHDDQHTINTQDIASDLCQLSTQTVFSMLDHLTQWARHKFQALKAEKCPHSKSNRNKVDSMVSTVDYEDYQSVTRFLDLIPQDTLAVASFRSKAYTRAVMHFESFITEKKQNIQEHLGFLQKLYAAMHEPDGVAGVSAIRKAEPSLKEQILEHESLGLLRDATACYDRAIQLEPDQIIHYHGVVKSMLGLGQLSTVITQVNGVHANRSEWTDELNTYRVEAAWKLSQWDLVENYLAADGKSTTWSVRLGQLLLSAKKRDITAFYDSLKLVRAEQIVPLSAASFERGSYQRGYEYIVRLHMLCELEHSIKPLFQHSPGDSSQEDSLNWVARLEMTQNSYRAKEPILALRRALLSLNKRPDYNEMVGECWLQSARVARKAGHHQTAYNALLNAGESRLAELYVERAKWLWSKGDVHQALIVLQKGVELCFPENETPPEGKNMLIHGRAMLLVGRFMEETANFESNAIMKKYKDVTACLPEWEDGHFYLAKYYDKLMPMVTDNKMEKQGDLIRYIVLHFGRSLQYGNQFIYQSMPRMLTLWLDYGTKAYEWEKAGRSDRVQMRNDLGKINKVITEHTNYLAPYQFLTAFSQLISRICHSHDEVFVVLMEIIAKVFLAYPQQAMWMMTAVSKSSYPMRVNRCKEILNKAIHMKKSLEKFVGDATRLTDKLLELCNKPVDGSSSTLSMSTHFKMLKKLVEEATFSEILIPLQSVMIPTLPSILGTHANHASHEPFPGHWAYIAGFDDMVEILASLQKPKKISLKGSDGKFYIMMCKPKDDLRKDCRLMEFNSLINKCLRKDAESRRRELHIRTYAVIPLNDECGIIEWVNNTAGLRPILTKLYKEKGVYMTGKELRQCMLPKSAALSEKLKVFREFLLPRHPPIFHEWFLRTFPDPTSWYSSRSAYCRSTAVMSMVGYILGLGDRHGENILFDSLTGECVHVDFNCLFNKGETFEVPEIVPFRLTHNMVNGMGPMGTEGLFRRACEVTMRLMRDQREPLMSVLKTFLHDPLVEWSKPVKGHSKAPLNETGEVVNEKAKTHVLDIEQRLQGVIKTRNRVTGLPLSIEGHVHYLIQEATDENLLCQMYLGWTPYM
full-length human ATR protein, sequence (Q8WXE1 other isoform, or with tags, fused parts or gaps partner): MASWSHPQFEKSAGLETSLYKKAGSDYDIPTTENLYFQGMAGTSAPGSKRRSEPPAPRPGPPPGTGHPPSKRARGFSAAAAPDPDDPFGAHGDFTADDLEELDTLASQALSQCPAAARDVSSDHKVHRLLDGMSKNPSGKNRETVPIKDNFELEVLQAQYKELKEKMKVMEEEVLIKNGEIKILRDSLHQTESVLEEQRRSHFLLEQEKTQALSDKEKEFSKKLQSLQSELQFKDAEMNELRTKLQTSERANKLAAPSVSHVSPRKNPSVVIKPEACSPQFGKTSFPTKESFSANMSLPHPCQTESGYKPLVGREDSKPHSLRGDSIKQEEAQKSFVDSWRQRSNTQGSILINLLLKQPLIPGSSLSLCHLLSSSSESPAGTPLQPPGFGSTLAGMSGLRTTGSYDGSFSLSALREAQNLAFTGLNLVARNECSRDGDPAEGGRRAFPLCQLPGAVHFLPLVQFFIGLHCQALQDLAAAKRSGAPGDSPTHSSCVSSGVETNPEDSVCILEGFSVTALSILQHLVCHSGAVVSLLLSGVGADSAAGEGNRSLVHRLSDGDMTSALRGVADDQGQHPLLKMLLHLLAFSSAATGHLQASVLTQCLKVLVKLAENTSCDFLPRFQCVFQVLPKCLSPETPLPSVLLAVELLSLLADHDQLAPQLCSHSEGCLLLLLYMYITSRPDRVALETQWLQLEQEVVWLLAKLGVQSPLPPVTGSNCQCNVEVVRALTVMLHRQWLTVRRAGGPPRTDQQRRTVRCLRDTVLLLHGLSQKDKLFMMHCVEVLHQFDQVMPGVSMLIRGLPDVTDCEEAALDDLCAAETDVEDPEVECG

A word on the IC50: it is the concentration that inhibits the measured activity by half. As for `Cc1nc(S(C)(=O)=O)ccc1-c1cc(N2CCOC[C@H]2C)nc2c(-c3ccn[nH]3)nccc12` [Example 73, 4-[2-methyl-6-(methylsulfonyl)pyridin-3-yl]-2-[(3R)-3-methylmorpholin-4-yl]-8-(1H-pyrazol-5-yl)-1,7-naphthyridine], the IC50 was 6.71 nM.

As to `C[C@@H]1COCCN1c1cc(-c2ccc(S(C)(=O)=O)cc2F)c2ccnc(-c3ccn[nH]3)c2n1` [Example 74, 4-[2-fluoro-4-(methylsulfonyl)phenyl]-2-[(3R)-3-methylmorpholin-4-yl]-8-(1H-pyrazol-5-yl)-1,7-naphthyridine], the IC50 worked out at 7.1 nM. With `C[C@@H]1COCCN1c1cc(-c2cc(F)ccc2N)c2ccnc(-c3ccn[nH]3)c2n1` [Example 75, 4-fluoro-2-[2-[(3R)-3-methylmorpholin-4-yl]-8-(1H-pyrazol-5-yl)-1,7-naphthyridin-4-yl]aniline], the IC50 was determined as 6.97 nM.

With `C[C@@H]1COCCN1c1cc(-c2cncn2Cc2ccccc2)c2ccnc(-c3ccn[nH]3)c2n1` [Example 76, 4-(1-benzyl-1H-imidazol-5-yl)-2-[(3R)-3-methylmorpholin-4-yl]-8-(1H-pyrazol-5-yl)-1,7-naphthyridine], the IC50 is 8.91 nM. Then `C[C@@H]1COCCN1c1cc(-c2ccccc2F)c2ccnc(-c3ccn[nH]3)c2n1` [Example 77, 4-(2-fluorophenyl)-2-[(3R)-3-methylmorpholin-4-yl]-8-(1H-pyrazol-5-yl)-1,7-naphthyridine], with 8.92 nM; and `Cc1ncc(-c2cc(N3CCOC[C@H]3C)nc3c(-c4ccn[nH]4)nccc23)s1` [Example 78, 2-[(3R)-3-methylmorpholin-4-yl]-4-(2-methyl-1,3-thiazol-5-yl)-8-(1H-pyrazol-5-yl)-1,7-naphthyridine], with 11 nM; and `Cc1cc(S(C)(=O)=O)ncc1-c1cc(N2CCOC[C@H]2C)nc2c(-c3ccn[nH]3)nccc12` [Example 79, 4-[4-methyl-6-(methylsulfonyl)pyridin-3-yl]-2-[(3R)-3-methylmorpholin-4-yl]-8-(1H-pyrazol-5-yl)-1,7-naphthyridine], with 12 nM. For the compound `C[C@@H]1COCCN1c1cc(-c2ccnn2C2CC2)c2ccnc(-c3ccn[nH]3)c2n1` [Example 80, 4-(1-cyclopropyl-1H-pyrazol-5-yl)-2-[(3R)-3-methylmorpholin-4-yl]-8-(1H-pyrazol-5-yl)-1,7-naphthyridine], the half-inhibitory concentration (IC50) amounted to 12.1 nM. `C[C@@H]1COCCN1c1cc(-c2ccc(N3CCNCC3)cc2F)c2ccnc(-c3ccn[nH]3)c2n1` [Example 81, 4-[2-fluoro-4-(piperazin-1-yl)phenyl]-2-[(3R)-3-methylmorpholin-4-yl]-8-(1H-pyrazol-5-yl)-1,7-naphthyridine]: the IC50 came to 14.3 nM. With `C[C@@H]1COCCN1c1cc(N2CCN(S(C)(=O)=O)CC2)c2ccnc(-c3ccn[nH]3)c2n1` [Example 82, 2-[(3R)-3-methylmorpholin-4-yl]-4-[4-(methylsulfonyl)piperazin-1-yl]-8-(1H-pyrazol-5-yl)-1,7-naphthyridine], the IC50 turned out to be 4.9 nM. Under `C[C@@H]1COCCN1c1cc(N(C)CC(C)(C)C)c2ccnc(-c3ccn[nH]3)c2n1` [Example 83, N-(2,2-dimethylpropyl)-N-methyl-2-[(3R)-3-methylmorpholin-4-yl]-8-(1H-pyrazol-5-yl)-1,7-naphthyridin-4-amine] stands 5.38 nM. Regarding `C[C@@H]1COCCN1c1cc(N2CCC(CO)CC2)c2ccnc(-c3ccn[nH]3)c2n1` [Example 84, (1-{2-[(3R)-3-methylmorpholin-4-yl]-8-(1H-pyrazol-5-yl)-1,7-naphthyridin-4-yl}piperidin-4-yl)methanol], the IC50 stood at 6.6 nM.

In the case of `C[C@@H]1COCCN1c1cc(N(C)C2CC2)c2ccnc(-c3ccn[nH]3)c2n1` [Example 85, N-cyclopropyl-N-methyl-2-[(3R)-3-methylmorpholin-4-yl]-8-(1H-pyrazol-5-yl)-1,7-naphthyridin-4-amine], the IC50 was 11.9 nM. Under `C[C@@H]1COCCN1c1cc(N2CCn3ccnc3C2)c2ccnc(-c3ccn[nH]3)c2n1` [Example 86, 4-(5,6-dihydroimidazo[1,2-a]pyrazin-7(8H)-yl)-2-[(3R)-3-methylmorpholin-4-yl]-8-(1H-pyrazol-5-yl)-1,7-naphthyridine] stands 10.9 nM. Turning to `C[C@@H]1COCCN1c1cc(N(C)c2ccc(F)cc2)c2ccnc(-c3ccn[nH]3)c2n1` [Example 87, N-(4-fluorophenyl)-N-methyl-2-[(3R)-3-methylmorpholin-4-yl]-8-(1H-pyrazol-5-yl)-1,7-naphthyridin-4-amine], the IC50 turned out to be 8.71 nM. Under `Cc1ccc(-c2cc(N3CCOC[C@H]3C)nc3c(-c4ccn[nH]4)nccc23)cn1` [Example 88, 2-[(3R)-3-methylmorpholin-4-yl]-4-(6-methylpyridin-3-yl)-8-(1H-pyrazol-5-yl)-1,7-naphthyridine] stands 15.3 nM; under `C[C@@H]1COCCN1c1cc(-c2cccnc2F)c2ccnc(-c3ccn[nH]3)c2n1` [Example 89, 4-(2-fluoropyridin-3-yl)-2-[(3R)-3-methylmorpholin-4-yl]-8-(1H-pyrazol-5-yl)-1,7-naphthyridine], 8.11 nM; under `Cc1ccnc(F)c1-c1cc(N2CCOC[C@H]2C)nc2c(-c3ccn[nH]3)nccc12` [Example 90, 4-(2-fluoro-4-methylpyridin-3-yl)-2-[(3R)-3-methylmorpholin-4-yl]-8-(1H-pyrazol-5-yl)-1,7-naphthyridine], 10.6 nM. Under `C[C@@H]1COCCN1c1cc(-c2cccn2C)c2ccnc(-c3ccn[nH]3)c2n1` [Example 91, 2-[(3R)-3-methylmorpholin-4-yl]-4-(1-methyl-1H-pyrrol-2-yl)-8-(1H-pyrazol-5-yl)-1,7-naphthyridine] stands 10 nM; under `Cc1ccc(-c2cc(N3CCOC[C@H]3C)nc3c(-c4ccn[nH]4)nccc23)c(F)n1` [Example 93, 4-(2-fluoro-6-methylpyridin-3-yl)-2-[(3R)-3-methylmorpholin-4-yl]-8-(1H-pyrazol-5-yl)-1,7-naphthyridine], 10.9 nM; under `COc1ccc(-c2cc(N3CCOC[C@H]3C)nc3c(-c4ccn[nH]4)nccc23)cn1` [Example 95, 4-(6-methoxypyridin-3-yl)-2-[(3R)-3-methylmorpholin-4-yl]-8-(1H-pyrazol-5-yl)-1,7-naphthyridine], 11.3 nM. On to `COc1ncc(-c2cc(N3CCOC[C@H]3C)nc3c(-c4ccn[nH]4)nccc23)cc1C` [Example 96, 4-(6-methoxy-5-methylpyridin-3-yl)-2-[(3R)-3-methylmorpholin-4-yl]-8-(1H-pyrazol-5-yl)-1,7-naphthyridine], for which the IC50 came out at 12.7 nM.

In the case of `Cc1nc(F)ccc1-c1cc(N2CCOC[C@H]2C)nc2c(-c3ccn[nH]3)nccc12` [Example 97, 4-(6-fluoro-2-methylpyridin-3-yl)-2-[(3R)-3-methylmorpholin-4-yl]-8-(1H-pyrazol-5-yl)-1,7-naphthyridine], the IC50 turned out to be 13.9 nM. For `C[C@@H]1COCCN1c1cc(-c2cc(C(F)(F)F)nn2C)c2ccnc(-c3ccn[nH]3)c2n1` [Example 98, 2-[(3R)-3-methylmorpholin-4-yl]-4-[1-methyl-3-(trifluoromethyl)-1H-pyrazol-5-yl]-8-(1H-pyrazol-5-yl)-1,7-naphthyridine], the IC50 stood at 13.1 nM.
